Series [1] is described as follows: Half-life after intravenous injection in male Wistar rats, concentration from plasma anti-factor Xa. Format: in vivo. As to conditions: 1 mg/Kg, T1/2 from concentration-time curve. As to the method:
(§1) The pentose (API) in Example 10 is subjected to a biological test: anticoagulant factor Xa activity and half-life (Ti/2), as shown in Table 1. Determination of anticoagulant factor Xa activity: Refer to substrate developing method for determination of anticoagulant factor Xa of low molecular heparin. Measurement of half-life: inject this anticoagulant pentose (dosage 1 mg/Kg) in male Wistar rats intravenously for pharmacokinetic study, calculate the concentration of this compound in blood by measuring the anticoagulant factor Xa in plasma, and calculate the half-life (T1/2) by the concentration-time curve.

A further series deals with factor Xa. Briefly: Determination of anticoagulant factor Xa activity (substrate developing method as for low molecular heparin). It counts as biochemical. As to the method:
as §1

`CO[C@H]1O[C@H](COS(=O)(=O)O)[C@@H](O[C@@H]2O[C@@H](C(=O)O)[C@@H](O[C@H]3O[C@H](COS(=O)(=O)O)[C@@H](O[C@@H]4O[C@H](C(=O)O)[C@@H](O[C@H]5O[C@H](COS(=O)(=O)O)[C@@H](O)[C@H](O)[C@H]5NS(=O)(=O)O)[C@H](O)[C@H]4O)[C@H](OS(=O)(=O)O)[C@H]3NS(=O)(=O)O)[C@H](O)[C@H]2OS(=O)(=O)O)[C@H](O)[C@H]1NS(=O)(=O)O` [Fondaparinux sodium] showed a Half-life in series [1] of 0.6 ± 0.1 H. In addition, the “Anticoagulant Factor Xa” value with factor Xa is reported as 750 + 30 IU/mg.

For the origin of these results see patent US20220289782A1, “A Compound with High Anticoagulant Activity and Its Preparation Method and Application” (SUZHOU WISMED PHARMACEUTICALS CO LTD, priority 2019, published 2022).
